According to patent US9598423B2 (BRISTOL-MYERS SQUIBB COMPANY, priority 2013, dated 2017):
Where two headings read alike, the source gives them in different places.

Experiments:
CK1δ = CK1δ (Homo sapiens (Human), UniProt P48730); assay: CK1δ kinase assay (Caliper LABCHIP electrophoretic separation of fluoresceinated peptide substrate and product); type: biochemical; conditions: 200 pM CK1δ, 50 μM ATP, 1.5 μM peptide substrate, 22 hours at room temperature; read-out: CK1δ (IC50)
How it was run: (§1)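 Incubated for twenty-two hours at ambient temperature, then quenched with EDTA and analyzed by electrophoretic separation of unphosphorylated and phosphorylated peptide.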

CK1ε = CK1ε (Homo sapiens (Human), UniProt P49674); assay: CK1ε kinase assay (Caliper LABCHIP electrophoretic separation of fluoresceinated peptide substrate and product); type: biochemical; conditions: read-out: CK1ε (IC50)
How it was run: as §1

[1] = 200 pM CK1ε, 50 μM ATP, 1.5 μM peptide substrate, 22 hours at room temperature

Sequence of CK1ε (P49674 whole entry): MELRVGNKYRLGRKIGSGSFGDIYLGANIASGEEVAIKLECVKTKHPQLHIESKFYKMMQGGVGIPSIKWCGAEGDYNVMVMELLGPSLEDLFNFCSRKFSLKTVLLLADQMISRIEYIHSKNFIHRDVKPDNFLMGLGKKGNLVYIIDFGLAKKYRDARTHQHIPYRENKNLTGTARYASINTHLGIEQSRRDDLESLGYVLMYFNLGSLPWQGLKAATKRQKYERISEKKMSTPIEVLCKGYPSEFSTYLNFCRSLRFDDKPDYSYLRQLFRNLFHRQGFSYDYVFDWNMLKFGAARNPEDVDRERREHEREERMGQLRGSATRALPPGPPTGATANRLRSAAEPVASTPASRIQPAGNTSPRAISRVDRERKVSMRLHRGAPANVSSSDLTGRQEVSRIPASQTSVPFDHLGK
Sequence of CK1δ (P48730 whole entry): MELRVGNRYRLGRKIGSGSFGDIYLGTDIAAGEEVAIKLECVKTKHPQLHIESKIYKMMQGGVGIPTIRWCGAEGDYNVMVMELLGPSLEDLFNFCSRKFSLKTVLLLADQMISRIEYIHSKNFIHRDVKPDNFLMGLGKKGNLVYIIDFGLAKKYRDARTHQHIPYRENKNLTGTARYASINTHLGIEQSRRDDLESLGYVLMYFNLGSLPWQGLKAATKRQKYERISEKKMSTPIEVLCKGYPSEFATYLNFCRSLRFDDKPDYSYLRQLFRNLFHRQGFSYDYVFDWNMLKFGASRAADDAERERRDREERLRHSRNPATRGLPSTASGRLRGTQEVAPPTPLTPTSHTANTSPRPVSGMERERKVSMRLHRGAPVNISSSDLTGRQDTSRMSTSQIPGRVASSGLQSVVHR

| SMILES | IC50 (CK1δ) [nM] | IC50 (CK1ε; [1]) [nM] | IC50 (CK1ε) [nM] |
| --- | --- | --- | --- |
| N#Cc1ccc(NC(=O)N2CCn3nc(-c4ccc(Cl)c(Cl)c4)c(C(N)=O)c3C2)cc1C(F)(F)F [Compound 208, N^5-(4-Cyano-3-(trifluoromethyl)phenyl)-2-(3,4-dichlorophenyl)-6,7-dihydropyrazolo[1,5-a] pyrazine-3,5(4H)-dicarboxamide] | 0.01 to 10 | 0.01 to 10 | – |
| NC(=O)c1c(-c2ccc(Cl)c(Cl)c2)nn2c1CN(C(=O)Nc1ccc(Cl)c(Cl)c1)CC2 [Compound 209] | 0.01 to 10 | 0.01 to 10 | – |
| NC(=O)c1c(-c2ccc(Cl)c(Cl)c2)nn2c1CN(C(=O)Nc1cc(F)cc(C(F)(F)F)c1)CC2 [Compound 212, 2-(3,4-Dichlorophenyl)-N^5-(3-fluoro-5-(trifluoromethyl)phenyl)-6,7-dihydropyrazolo [1,5-a]pyrazine-3,5(4H)-dicarboxamide] | 0.01 to 10 | 0.01 to 10 | – |
| NC(=O)c1c(-c2ccc(Cl)c(Cl)c2)nn2c1CN(C(=O)Nc1ccc(OC(F)(F)F)cc1)CC2 [Compound 213, 2-(3,4-Dichlorophenyl)-N^5-(4-(trifluoromethoxy)phenyl)-6,7-dihydropyrazolo[1,5-a] pyrazine-3,5(4H)-dicarboxamide] | 0.01 to 10 | 0.01 to 10 | – |
| Cc1cc(NC(=O)N2CCn3nc(-c4ccc(Cl)c(Cl)c4)c(C(N)=O)c3C2)ccc1C#N [Compound 214, N^5-(4-Cyano-3-methylphenyl)-2-(3,4-dichlorophenyl)-6,7-dihydropyrazolo[1,5-a] pyrazine-3,5(4H)-dicarboxamide] | 0.01 to 10 | 0.01 to 10 | – |
| N#Cc1ccc(NC(=O)N2CCn3nc(-c4cc(F)cc(Cl)c4)c(C(N)=O)c3C2)cc1F [Compound 215, 2-(3-Chloro-5-fluorophenyl)-N^5-(4-cyano-3-fluorophenyl)-6,7-dihydropyrazolo[1,5-a]pyrazine-3,5(4H)-dicarboxamide] | 0.01 to 10 | 0.01 to 10 | – |
| NC(=O)c1c(-c2cc(F)cc(Cl)c2)nn2c1CN(C(=O)Nc1cc(Cl)cc(Cl)c1)CC2 [Compound 216, 2-(3-Chloro-5-fluorophenyl)-N^5-(3,5-dichlorophenyl)-6,7-dihydropyrazolo[1,5-a] pyrazine-3,5(4H)-dicarboxamide] | 0.01 to 10 | 0.01 to 10 | – |
| NC(=O)c1c(-c2cc(F)cc(Cl)c2)nn2c1CN(C(=O)Nc1ccc(Cl)c(Cl)c1)CC2 [Compound 217, 2-(3-Chloro-5-fluorophenyl)-N^5-(3,4-dichlorophenyl)-6,7-dihydropyrazolo[1,5-a] pyrazine-3,5(4H)-dicarboxamide] | 0.01 to 10 | 0.01 to 10 | – |
| N#Cc1ccc(NC(=O)N2CCn3nc(-c4cc(F)cc(Cl)c4)c(C(N)=O)c3C2)cc1C(F)(F)F [Compound 218, 2-(3-Chloro-5-fluorophenyl)-N^5-(4-cyano-3-(trifluoromethyl)phenyl)-6,7-dihydropyrazolo[1,5-a] pyrazine-3,5(4H)-dicarboxamide] | 10 to 100 | 0.01 to 10 | – |
| Cc1cc(NC(=O)N2CCn3nc(-c4cc(F)cc(Cl)c4)c(C(N)=O)c3C2)ccc1C#N [Compound 221, 2-(3-Chloro-5-fluorophenyl)-N^5-(4-cyano-3-methylphenyl)-6,7-dihydropyrazolo[1,5-a]pyrazine-3,5(4H)-dicarboxamide] | 0.01 to 10 | 0.01 to 10 | – |
| N#Cc1ccc(NC(=O)N2CCn3nc(-c4cc(F)cc(Cl)c4)c(C(N)=O)c3C2)cc1Cl [Compound 222, N^5-(3-Chloro-4-cyanophenyl)-2-(3-chloro-5-fluorophenyl)-6,7-dihydropyrazolo[1,5-a] pyrazine-3,5(4H)-dicarboxamide] | 0.01 to 10 | 0.01 to 10 | – |
| Cc1cc(F)cc(-c2nn3c(c2C(N)=O)CN(C(=O)Nc2ccc(C#N)c(F)c2)CC3)c1 [Compound 224, N^5-(4-Cyano-3-fluorophenyl)-2-(3-fluoro-5-methylphenyl)-6,7-dihydropyrazolo[1,5-a] pyrazine-3,5(4H)-dicarboxamide] | 0.01 to 10 | 0.01 to 10 | – |
| Cc1cc(F)cc(-c2nn3c(c2C(N)=O)CN(C(=O)Nc2ccc4ncsc4c2)CC3)c1 [Compound 225, N^5-(Benzo[d]thiazol-6-yl)-2-(3-fluoro-5-methylphenyl)-6,7-dihydropyrazolo[1,5-a] pyrazine-3,5(4H)-dicarboxamide] | 0.01 to 10 | 0.01 to 10 | – |
| Cc1cc(F)cc(-c2nn3c(c2C(N)=O)CN(C(=O)Nc2ccc4c(c2)OC(F)(F)O4)CC3)c1 [Compound 227, N^5-(2,2-Difluorobenzo[d] [1,3]dioxol-5-yl)-2-(3-fluoro-5-methylphenyl)-6,7-dihydropyrazolo[1,5-a] pyrazine-3,5(4H)-dicarboxamide] | 0.01 to 10 | 0.01 to 10 | – |
| Cc1cc(F)cc(-c2nn3c(c2C(N)=O)CN(C(=O)Nc2ccc(C#N)c(C(F)(F)F)c2)CC3)c1 [Compound 229, N^5-(4-Cyano-3-(trifluoromethyl)phenyl)-2-(3-fluoro-5-methylphenyl)-6,7-dihydropyrazolo[1,5-a] pyrazine-3,5(4H)-dicarboxamide] | 0.01 to 10 | – | 0.01 to 10 |
| Cc1cc(F)cc(-c2nn3c(c2C(N)=O)CN(C(=O)Nc2ccc(C#N)c(Cl)c2)CC3)c1 [Compound 230, N^5-(3-Chloro-4-cyanophenyl)-2-(3-fluoro-5-methylphenyl)-6,7-dihydropyrazolo[1,5-a] pyrazine-3,5(4H)-dicarboxamide] | 0.01 to 10 | 0.01 to 10 | – |
| NC(=O)c1c(-c2ccc(F)c(F)c2)nn2c1CN(C(=O)Nc1ccc3c(c1)OC(F)(F)O3)CC2 [Compound 232, N^5-(2,2-Difluorobenzo [d][1,3]dioxol-5-yl)-2-(3,4-difluorophenyl)-6,7-dihydropyrazolo [1,5-a]pyrazine-3,5(4H)-dicarboxamide] | 0.01 to 10 | 0.01 to 10 | – |
| NC(=O)c1c(-c2ccc(F)c(F)c2)nn2c1CN(C(=O)Nc1ccc3c(c1)CS(=O)(=O)C3)CC2 [Compound 234, 2-(3,4-Difluorophenyl)-N^5-(2,2-dioxido-1,3-dihydrobenzo[c]thiophen-5-yl)-6,7-dihydropyrazolo [1,5-a]pyrazine-3,5(4H)-dicarboxamide] | 0.01 to 10 | 0.01 to 10 | – |
| N#Cc1ccc(NC(=O)N2CCn3nc(-c4ccc(F)c(F)c4)c(C(N)=O)c3C2)cc1F [Compound 236, N^5-(4-Cyano-3-fluorophenyl)-2-(3,4-difluorophenyl)-6,7-dihydropyrazolo[1,5-a] pyrazine-3,5(4H)-dicarboxamide] | 0.01 to 10 | 0.01 to 10 | – |
| N#Cc1ccc(NC(=O)N2CCn3nc(-c4ccc(F)c(F)c4)c(C(N)=O)c3C2)cc1C(F)(F)F [Compound 237, N^5-(4-Cyano-3-(trifluoromethyl)phenyl)-2-(3,4-difluorophenyl)-6,7-dihydropyrazolo [1,5-a]pyrazine-3,5(4H)-dicarboxamide] | 0.01 to 10 | 0.01 to 10 | – |
| Cc1cc(-c2nn3c(c2C(N)=O)CN(C(=O)Nc2ccc4ncsc4c2)CC3)ccc1F [Compound 241, N^5-(Benzo[d]thiazol-6-yl)-2-(4-fluoro-3-methylphenyl)-6,7-dihydropyrazolo[1,5-a] pyrazine-3,5(4H)-dicarboxamide] | 0.01 to 10 | 0.01 to 10 | – |
| Cc1cc(-c2nn3c(c2C(N)=O)CN(C(=O)Nc2ccc(C#N)c(F)c2)CC3)ccc1F [Compound 243, N^5-(4-Cyano-3-fluorophenyl)-2-(4-fluoro-3-methylphenyl)-6,7-dihydropyrazolo[1,5-a] pyrazine-3,5(4H)-dicarboxamide] | 0.01 to 10 | 0.01 to 10 | – |
| Cc1cc(-c2nn3c(c2C(N)=O)CN(C(=O)Nc2ccc(C#N)c(Cl)c2)CC3)ccc1F [Compound 244, N^5-(3-Chloro-4-cyanophenyl)-2-(4-fluoro-3-methylphenyl)-6,7-dihydropyrazolo[1,5-a] pyrazine-3,5(4H)-dicarboxamide] | 0.01 to 10 | 0.01 to 10 | – |
| Cc1cc(-c2nn3c(c2C(N)=O)CN(C(=O)Nc2ccc(C#N)c(C(F)(F)F)c2)CC3)ccc1F [Compound 245, N^5-(4-Cyano-3-(trifluoromethyl)phenyl)-2-(4-fluoro-3-methylphenyl)-6,7-dihydropyrazolo[1,5-a] pyrazine-3,5(4H)-dicarboxamide] | 0.01 to 10 | 0.01 to 10 | – |
| Cc1cc(-c2nn3c(c2C(N)=O)CN(C(=O)Nc2ccc4c(c2)CS(=O)(=O)C4)CC3)ccc1F [Compound 246, N^5-(2,2-Dioxido-1,3-dihydrobenzo[c]thiophen-5-yl)-2-(4-fluoro-3-methylphenyl)-6,7-dihydropyrazolo[1,5-a] pyrazine-3,5(4H)-dicarboxamide] | 0.01 to 10 | 0.01 to 10 | – |
| Cc1cc(-c2nn3c(c2C(N)=O)CN(C(=O)Nc2ccc4c(c2)OC(F)(F)O4)CC3)ccc1F [Compound 247, N^5-(2,2-Difluorobenzo [d][1,3]dioxol-5-yl)-2-(4-fluoro-3-methylphenyl)-6,7-dihydropyrazolo[1,5-a]pyrazine-3,5(4H)-dicarboxamide] | 0.01 to 10 | 0.01 to 10 | – |
| Cc1cc(-c2nn3c(c2C(N)=O)CN(C(=O)Nc2ccc(C#N)cc2)CC3)ccc1F [Compound 248, N^5-(4-Cyanophenyl)-2-(4-fluoro-3-methylphenyl)-6,7-dihydropyrazolo[1,5-a]pyrazine-3,5(4H)-dicarboxamide] | 0.01 to 10 | 0.01 to 10 | – |
| Cc1ccc(-c2nn3c(c2C(N)=O)CN(C(=O)Nc2ccc(C#N)c(C)c2)CC3)cc1Cl [Compound 249, 2-(3-Chloro-4-methylphenyl)-N^5-(4-cyano-3-methylphenyl)-6,7-dihydropyrazolo[1,5-a]pyrazine-3,5(4H)-dicarboxamide] | 0.01 to 10 | 0.01 to 10 | – |
| Cc1ccc(-c2nn3c(c2C(N)=O)CN(C(=O)Nc2ccc4c(c2)OC(F)(F)O4)CC3)cc1Cl [Compound 250, 2-(3-Chloro-4-methylphenyl)-N^5-(2,2-difluorobenzo[d][1,3]dioxol-5-yl)-6,7-dihydropyrazolo[1,5-a] pyrazine-3,5(4H)-dicarboxamide] | 0.01 to 10 | 0.01 to 10 | – |
